From US8377884B2, “Variants of C-type natriuretic peptides” (Biomarin Pharmaceutical Inc., priority 2007, dated 2013)
Read-outs that look alike come from different tables or passages of the source. Bridge positions count the residues as written; N and C are the ends. Peptide text beside a SMILES is read from it. * marks the point of attachment. CH3O(CH2CH2O)11CH2CH2CO = COCCOCCOCCOCCOCCOCCOCCOCCOCCOCCOCCOCCC(=O)*

Assays:
NPR-B = biological target: T1, NPR-B (Mus musculus, UniProt Q6VVW5); assay: Stimulation of cGMP production in NIH3T3 cells; assay type: cell-based, Murine; conditions: for cGMP response relative to 1 uM CNP22 (%) at 0.01 µM: read-out: cGMP Response rel. to 1 uM CNP22, 10 nM; for cGMP response relative to 1 uM CNP22 (%) at 1 µM: read-out: cGMP Response rel. to 1 uM CNP22, 1 uM
T1 construct: Murine NIH3T3 cells express endogenously the CNP signaling receptor, NPR-B; endogenous in cells; host or cells: NIH3T3 (murine fibroblasts)
T1 sequence (Q6VVW5 17-1047): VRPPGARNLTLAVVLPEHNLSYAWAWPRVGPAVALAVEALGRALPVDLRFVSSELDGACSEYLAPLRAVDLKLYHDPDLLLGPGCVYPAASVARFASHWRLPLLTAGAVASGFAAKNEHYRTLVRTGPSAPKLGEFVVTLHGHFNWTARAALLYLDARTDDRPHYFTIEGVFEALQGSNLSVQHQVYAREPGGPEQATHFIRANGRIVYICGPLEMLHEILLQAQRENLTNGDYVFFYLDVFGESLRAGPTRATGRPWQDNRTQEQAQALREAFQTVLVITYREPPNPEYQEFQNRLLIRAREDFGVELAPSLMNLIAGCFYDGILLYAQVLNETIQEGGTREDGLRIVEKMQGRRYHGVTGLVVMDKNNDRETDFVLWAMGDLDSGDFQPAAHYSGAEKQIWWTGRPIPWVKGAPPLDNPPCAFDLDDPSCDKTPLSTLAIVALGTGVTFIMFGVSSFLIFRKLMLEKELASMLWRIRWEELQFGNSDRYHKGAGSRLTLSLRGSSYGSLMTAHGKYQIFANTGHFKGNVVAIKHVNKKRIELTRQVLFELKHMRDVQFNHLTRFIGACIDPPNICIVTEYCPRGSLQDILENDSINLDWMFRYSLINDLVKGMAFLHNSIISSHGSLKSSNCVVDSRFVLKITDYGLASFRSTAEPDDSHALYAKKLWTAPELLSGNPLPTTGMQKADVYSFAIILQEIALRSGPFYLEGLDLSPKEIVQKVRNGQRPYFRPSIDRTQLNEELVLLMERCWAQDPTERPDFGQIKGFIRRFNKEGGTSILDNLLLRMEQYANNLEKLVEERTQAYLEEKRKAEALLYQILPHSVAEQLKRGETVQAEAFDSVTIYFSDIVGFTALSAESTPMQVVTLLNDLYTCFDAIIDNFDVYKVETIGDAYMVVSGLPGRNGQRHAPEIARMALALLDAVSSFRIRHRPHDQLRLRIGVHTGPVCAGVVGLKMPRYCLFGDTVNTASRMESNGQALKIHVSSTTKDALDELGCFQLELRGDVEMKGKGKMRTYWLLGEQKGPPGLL

Recombinant human NEP = Recombinant human NEP (Homo sapiens, UniProt P08473); assay: in vitro; conditions: for NEP Cleavage (t1/2, min): pH 7
Procedure, shortened: (§1)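 Recombinant human NEP (1 ug/mL final) incubated with 100 uM CNP variant in 0.1 M Tris, pH 7, at 37° C for various times, then quenched with EDTA (10 mM final) and heat. Samples reduced and analysed by HPLC and mass spectrometry. Half-life derived from loss of intact variant over time.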

[1] = biological target: neutral endopeptidase (NEP) (Homo sapiens, UniProt P08473); assay: In vitro neutral endopeptidase (NEP) cleavage assay; conditions: human, pH 7
Procedure, shortened: as §1

[2] = NIH3T3 cells, 10 nM natriuretic peptide, normalized to cell number and cGMP production with 1 uM wtCNP22
[3] = NIH3T3 cells, 1 uM natriuretic peptide, normalized to cell number and cGMP production with 1 uM wtCNP22

Sequence of Recombinant human NEP (P08473 whole entry): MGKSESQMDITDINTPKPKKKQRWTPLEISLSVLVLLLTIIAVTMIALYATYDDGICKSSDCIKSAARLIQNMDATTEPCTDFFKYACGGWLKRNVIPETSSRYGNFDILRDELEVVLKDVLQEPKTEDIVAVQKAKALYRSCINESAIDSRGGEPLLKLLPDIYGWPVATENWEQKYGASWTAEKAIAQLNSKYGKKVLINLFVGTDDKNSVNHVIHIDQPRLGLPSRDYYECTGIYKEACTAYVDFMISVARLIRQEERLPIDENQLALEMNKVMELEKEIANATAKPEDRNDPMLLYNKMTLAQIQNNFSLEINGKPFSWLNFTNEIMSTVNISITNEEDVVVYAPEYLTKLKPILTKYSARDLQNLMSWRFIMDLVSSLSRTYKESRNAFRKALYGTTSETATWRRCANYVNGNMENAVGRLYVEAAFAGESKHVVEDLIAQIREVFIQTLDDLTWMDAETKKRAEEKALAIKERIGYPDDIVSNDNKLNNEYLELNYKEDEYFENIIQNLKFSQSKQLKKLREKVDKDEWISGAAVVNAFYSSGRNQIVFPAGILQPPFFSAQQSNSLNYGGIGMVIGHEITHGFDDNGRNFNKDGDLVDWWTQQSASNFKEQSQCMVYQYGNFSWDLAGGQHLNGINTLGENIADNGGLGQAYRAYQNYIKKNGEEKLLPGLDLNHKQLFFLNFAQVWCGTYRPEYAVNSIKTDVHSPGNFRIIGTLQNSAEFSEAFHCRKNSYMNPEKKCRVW
Sequence of neutral endopeptidase (NEP) (P08473 whole entry): as above

| Compound | cGMP Response rel. to 1 uM CNP22, 10 nM (NPR-B; [2]) | cGMP Response rel. to 1 uM CNP22, 1 uM (NPR-B; [3]) | cGMP response relative to 1 uM CNP22 (%) at 0.01 µM (NPR-B; [2]) | cGMP response relative to 1 uM CNP22 (%) at 1 µM (NPR-B; [3]) | NEP Cleavage (t1/2, min) (Recombinant human NEP) | resistance to NEP cleavage/degradation (in words) (Recombinant human NEP) | also measured |
| --- | --- | --- | --- | --- | --- | --- | --- |
| CC[C@H](C)[C@@H]1NC(=O)[C@H](CCCNC(=N)N)NC(=O)[C@H](CC(=O)O)NC(=O)[C@H](CC(C)C)NC(=O)[C@H](CCCCN)NC(=O)[C@H](CC(C)C)NC(=O)CNC(=O)[C@H](Cc2ccccc2)NC(=O)[C@@H](NC(=O)CNC(=O)[C@H](CCCNC(=N)N)NC(=O)[C@H](CO)NC(=O)[C@H](CC(C)C)NC(=O)CN)CSSC[C@@H](C(=O)O)NC(=O)CNC(=O)[C@H](CC(C)C)NC(=O)CNC(=O)[C@H](CO)NC(=O)[C@H](CCSC)NC(=O)[C@H](CO)NC(=O)[C@H](CO)NC1=O [BK] (H-GLSRGCFGLKLDRISSMSGLGC-OH; disulfide 6-22 (inferred); N-terminus and C-terminus assumed) |  |  |  |  |  |  | cGMP response relative to 1 uM CNP22 (%) at 0.01 µM (NPR-B; NIH3T3, […]): 13 ± 1%; cGMP response relative to 1 uM CNP22 (%) at 1 µM (NPR-B; NIH3T3, […]): 71 ± 11%; half-life at 100 uM [1]: ≥ 2.67 h; resistance to NEP cleavage/degradation (in words) (Recombinant human NEP; in vitro NEP cleavage assay, assay period 160 minutes): greatest resistance to NEP cleavage |
| CC[C@H](C)[C@@H]1NC(=O)[C@H](CCCNC(=N)N)NC(=O)[C@H](CC(=O)O)NC(=O)[C@H](CC(C)C)NC(=O)[C@H](CCCCN)NC(=O)[C@H](CC(C)C)NC(=O)CNC(=O)[C@H](Cc2ccccc2)NC(=O)[C@@H](NC(=O)CNC(=O)[C@H](CO)NC(=O)CNC(=O)[C@H](CCC(N)=O)NC(=O)[C@@H](NC(=O)[C@H](CCSC)NC(=O)[C@H](CCCCN)NC(=O)[C@@H]2CCCN2C(=O)[C@@H](N)CO)C(C)C)CSSC[C@@H](C(=O)N[C@@H](CCCCN)C(=O)N[C@H](C(=O)N[C@@H](CC(C)C)C(=O)N[C@@H](CCCNC(=N)N)C(=O)N[C@@H](CCCNC(=N)N)C(=O)N[C@@H](Cc2c[nH]cn2)C(=O)O)C(C)C)NC(=O)CNC(=O)[C@H](CC(C)C)NC(=O)CNC(=O)[C@H](CO)NC(=O)[C@H](CCSC)NC(=O)[C@H](CO)NC(=O)CNC1=O [CD] (H-SPKMVQGSGCFGLKLDRIGSMSGLGCKVLRRH-OH; disulfide 10-26 (inferred); N-terminus and C-terminus assumed) |  |  | 25% | 102% |  | much more resistant to NEP cleavage than CNP22 |  |
| CC[C@H](C)[C@@H]1NC(=O)[C@H](CCCNC(=N)N)NC(=O)[C@H](CC(=O)O)NC(=O)[C@H](CC(C)C)NC(=O)[C@H](CCCCN)NC(=O)[C@H](CC(C)C)NC(=O)CNC(=O)[C@H](Cc2ccccc2)NC(=O)[C@@H](NC(=O)CNC(=O)[C@H](CCCNC(=N)N)NC(=O)[C@H](CO)NC(=O)[C@H](CC(C)C)NC(=O)CNC(=O)[C@H](CCCNC(=N)N)NC(=O)[C@@H]2CCCN2C(=O)[C@H](CC(N)=O)NC(=O)[C@H](C)NC(=O)CNC(=O)CCOCCOCCOCCOCCOCCOCCOCCOCCOCCOCCOCCOC)CSSC[C@@H](C(=O)O)NC(=O)CNC(=O)[C@H](CC(C)C)NC(=O)CNC(=O)[C@H](CO)NC(=O)[C@H](CCSC)NC(=O)[C@H](CO)NC(=O)CNC1=O [PEO12-GANPR-CNP22, K4R] ({CH3O(CH2CH2O)11CH2CH2CO}-GANPRGLSRGCFGLKLDRIGSMSGLGC-OH; disulfide 11-27; C-terminus assumed) |  |  |  |  |  | same half-life as wtCNP22 | half-life at 100 uM ([1]; recombinant human neutral endopeptidase (NEP)): 1.33 h |
| PEG2K-CNP22: CNP22 conjugated at the N-terminus to polydispersed PEG2K | 6 ± 2 | 32 ± 4 |  |  | >>160 min |  |  |
| CC[C@H](C)[C@@H]1NC(=O)[C@H](CCCNC(=N)N)NC(=O)[C@H](CC(=O)O)NC(=O)[C@H](CC(C)C)NC(=O)[C@H](CCCCN)NC(=O)[C@H](CC(C)C)NC(=O)CNC(=O)[C@H](Cc2ccccc2)N(C)C(=O)[C@@H](NC(=O)CNC(=O)[C@H](CCCCN)NC(=O)[C@H](CO)NC(=O)[C@H](CC(C)C)NC(=O)CN)CSSC[C@@H](C(=O)O)NC(=O)CNC(=O)[C@H](CC(C)C)NC(=O)CNC(=O)[C@H](CO)NC(=O)[C@H](CCSC)NC(=O)[C@H](CO)NC(=O)CNC1=O [B] |  |  |  |  |  |  | cGMP response relative to 1 uM CNP22 (%) at 0.01 µM (NPR-B; NIH3T3, […]): 2%; cGMP response relative to 1 uM CNP22 (%) at 1 µM (NPR-B; NIH3T3, […]): 38%; resistance to cleavage at the Cys6-Phe7 bond relative to wtCNP22 (Recombinant human NEP; data not shown): resistance or improved resistance; resistance to cleavage of the Gly8-Leu9 bond (Recombinant human NEP; in the presence of 1 ug/mL NEP, data not shown): exhibited resistance |
| CC[C@H](C)[C@@H]1NC(=O)[C@H](CCCNC(=N)N)NC(=O)[C@H](CC(=O)O)NC(=O)[C@H](CC(C)C)NC(=O)[C@H](CCCCN)NC(=O)[C@H](CC(C)C)NC(=O)CNC(=O)[C@H](Cc2ccccc2)NC(=O)[C@@H](NC(=O)CNC(=O)[C@H](CCCCN)NC(=O)[C@H](CO)NC(=O)[C@H](CC(C)C)NC(=O)CNC(=O)[C@H](C)NC(=O)[C@H](CC(N)=O)NC(=O)[C@@H]2CCCN2C(=O)[C@H](Cc2c[nH]cn2)NC(=O)[C@H](CCC(=O)O)NC(=O)[C@H](CCC(N)=O)NC(=O)[C@H](CC(C)C)NC(=O)[C@H](CC(C)C)NC(=O)[C@H](CCCNC(=N)N)NC(=O)[C@H](C)NC(=O)[C@H](Cc2c[nH]c3ccccc23)NC(=O)[C@H](C)NC(=O)[C@H](C)N)CSSC[C@@H](C(=O)O)NC(=O)CNC(=O)[C@H](CC(C)C)NC(=O)CNC(=O)[C@H](CO)NC(=O)[C@H](CCSC)NC(=O)[C@H](CO)NC(=O)CNC1=O [CA] (H-AAWARLLQEHPNAGLSKGCFGLKLDRIGSMSGLGC-OH; disulfide 19-35 (inferred); N-terminus and C-terminus assumed) |  |  | 24% | 76% |  | much more resistant to NEP cleavage than CNP22 |  |

More lines, main results first:

| cGMP Response rel. to 1 uM CNP22, 10 nM (NPR-B; [2]) | cGMP Response rel. to 1 uM CNP22, 1 uM (NPR-B; [3]) | cGMP response relative to 1 uM CNP22 (%) at 0.01 µM (NPR-B; [2]) | cGMP response relative to 1 uM CNP22 (%) at 1 µM (NPR-B; [3]) | Compound | NEP Cleavage (t1/2, min) (Recombinant human NEP) | resistance to NEP cleavage/degradation (in words) (Recombinant human NEP) | also measured |
| --- | --- | --- | --- | --- | --- | --- | --- |
| 0 | 15 |  |  | PEG20K-CNP22: CNP22 conjugated at the N-terminus to polydispersed PEG20K | >>160 min |  |  |
| 8 ± 1 | 20 ± 7 |  |  | PEG5K-CNP22: CNP22 conjugated at the N-terminus to polydispersed PEG5K | >>160 min | resistant to NEP degradation over the assay period of 160 minutes |  |
| 15 ± 3 | 68 ± 17 |  |  | PEG1K-CNP22: CNP22 conjugated at the N-terminus to polydispersed PEG1K | >>160 min |  |  |
|  |  | 15% | 87% | CC[C@H](C)[C@@H]1NC(=O)[C@H](CCCNC(=N)N)NC(=O)[C@H](CC(=O)O)NC(=O)[C@H](CC(C)C)NC(=O)[C@H](CCCCN)NC(=O)[C@H](CC(C)C)NC(=O)CNC(=O)[C@H](Cc2ccccc2)NC(=O)[C@@H](NC(=O)CNC(=O)[C@H](CCCCN)NC(=O)[C@H](CO)NC(=O)[C@H](CC(C)C)NC(=O)CNC(=O)[C@H](CCC(N)=O)NC(=O)[C@H](CO)NC(=O)[C@H](CC(C)C)NC(=O)[C@H](CCCNC(=N)N)NC(=O)[C@H](C)NC(=O)[C@@H](NC(=O)[C@H](C)NC(=O)[C@H](Cc2c[nH]c3ccccc23)NC(=O)[C@H](C)NC(=O)[C@H](CCCCN)NC(=O)[C@H](Cc2ccccc2)NC(=O)[C@H](C)NC(=O)[C@H](CCCNC(=N)N)NC(=O)[C@H](CCC(=O)O)NC(=O)CN)C(C)C)CSSC[C@@H](C(=O)O)NC(=O)CNC(=O)[C@H](CC(C)C)NC(=O)CNC(=O)[C@H](CO)NC(=O)[C@H](CCSC)NC(=O)[C@H](CO)NC(=O)CNC1=O [CE] (H-GERAFKAWAVARLSQGLSKGCFGLKLDRIGSMSGLGC-OH; disulfide 21-37 (inferred); N-terminus and C-terminus assumed) |  | much more resistant to NEP cleavage than CNP22 |  |
